# Legend:
# [1] = test system: HCT-116 (Colon cancer); experiment: NCI-60 single-dose anticancer screen; format: cell-based, human
# Experimental: (§1) Six compounds were selected by the NCI, according to NCI’s DTP selection guidelines, for evaluation of their anticancer activity at a single-dose of 10 µM against 60 human tumours cell lines.
# (§2) In vitro cytotoxicity was performed in NCI according to reported method.
# [2] = test system: HCC-2998 (Colon cancer); experiment: NCI-60 single-dose anticancer screen; format: cell-based, human; settings: 10 µM single dose
# Experimental: as §1, §2
# [3] = test system: ACHN (Renal cancer); experiment: NCI-60 single-dose anticancer screen; format: cell-based, human; settings: 10 µM single dose
# Experimental: as §1, §2
# [4] = test system: PC-3 (Prostate cancer); experiment: NCI-60 single-dose anticancer screen; format: cell-based, human; settings: 10 µM single dose
# Experimental: as §1, §2
# [5] = test system: HL-60(TB) (Leukaemia); experiment: NCI-60 single-dose anticancer screen; format: cell-based, human; settings: 10 µM single dose
# Experimental: as §1, §2
# [6] = test system: NCI/ADR-RES (Ovarian cancer); experiment: NCI-60 single-dose anticancer screen; format: cell-based, human; settings: 10 µM single dose
# Experimental: as §1, §2
# [7] = test system: SW-620 (Colon cancer); experiment: NCI-60 single-dose anticancer screen; format: cell-based, human; settings: 10 µM single dose
# Experimental: as §1, §2
# [8] = test system: MALME-3M (Melanoma); experiment: NCI-60 single-dose anticancer screen; format: cell-based, human; settings: 10 µM single dose
# Experimental: as §1, §2
# [9] = test system: RPMI-8226 (Leukaemia); experiment: NCI-60 single-dose anticancer screen; format: cell-based, human; settings: 10 µM single dose
# Experimental: as §1, §2
# [10] = test system: LOX IMVI (Melanoma); experiment: NCI-60 single-dose anticancer screen; format: cell-based, human; settings: 10 µM single dose
# Experimental: as §1, §2
# [11] = test system: U251 (CNS cancer); experiment: NCI-60 single-dose anticancer screen; format: cell-based, human; settings: 10 µM single dose
# Experimental: as §1, §2
# [12] = test system: A498 (Renal cancer); experiment: NCI-60 single-dose anticancer screen; format: cell-based, human; settings: 10 µM single dose
# Experimental: as §1, §2
# [13] = test system: COLO 205 (Colon cancer); experiment: NCI-60 single-dose anticancer screen; format: cell-based, human; settings: 10 µM single dose
# Experimental: as §1, §2
# [14] = test system: OVCAR-5 (Ovarian cancer); experiment: NCI-60 single-dose anticancer screen; format: cell-based, human; settings: 10 µM single dose
# Experimental: as §1, §2
# [15] = test system: MDA-MB-435 (Melanoma); experiment: NCI-60 single-dose anticancer screen; format: cell-based, human; settings: 10 µM single dose
# Experimental: as §1, §2
# [16] = test system: SK-MEL-2 (Melanoma); experiment: NCI-60 single-dose anticancer screen; format: cell-based, human; settings: 10 µM single dose
# Experimental: as §1, §2
# [17] = test system: TK-10 (Renal cancer); experiment: NCI-60 single-dose anticancer screen; format: cell-based, human; settings: 10 µM single dose
# Experimental: as §1, §2
# [18] = test system: RXF 393 (Renal cancer); experiment: NCI-60 single-dose anticancer screen; format: cell-based, human; settings: 10 µM single dose
# Experimental: as §1, §2
# [19] = test system: M14 (Melanoma); experiment: NCI-60 single-dose anticancer screen; format: cell-based, human; settings: 10 µM single dose
# Experimental: as §1, §2
# [20] = test system: MCF7 (Breast cancer); experiment: NCI-60 single-dose anticancer screen; format: cell-based, human; settings: 10 µM single dose
# Experimental: as §1, §2
# [21] = test system: SNB-19 (CNS cancer); experiment: NCI-60 single-dose anticancer screen; format: cell-based, human; settings: 10 µM single dose
# Experimental: as §1, §2
# [22] = test system: HOP-92 (Non-small cell lung cancer); experiment: NCI-60 single-dose anticancer screen; format: cell-based, human; settings: 10 µM single dose
# Experimental: as §1, §2
# [23] = test system: EKVX (Non-small cell lung cancer); experiment: NCI-60 single-dose anticancer screen; format: cell-based, human; settings: 10 µM single dose
# Experimental: as §1, §2
# [24] = test system: A549/ATCC (Non-small cell lung cancer); experiment: NCI-60 single-dose anticancer screen; format: cell-based, human; settings: 10 µM single dose
# Experimental: as §1, §2
# [25] = test system: KM12 (Colon cancer); experiment: NCI-60 single-dose anticancer screen; format: cell-based, human; settings: 10 µM single dose
# Experimental: as §1, §2
# [26] = test system: NCI-H460 (Non-small cell lung cancer); experiment: NCI-60 single-dose anticancer screen; format: cell-based, human; settings: 10 µM single dose
# Experimental: as §1, §2
# [27] = test system: UO-31 (Renal cancer); experiment: NCI-60 single-dose anticancer screen; format: cell-based, human; settings: 10 µM single dose
# Experimental: as §1, §2
# [28] = test system: OVCAR-8 (Ovarian cancer); experiment: NCI-60 single-dose anticancer screen; format: cell-based, human; settings: 10 µM single dose
# Experimental: as §1, §2
# [29] = test system: UACC-62 (Melanoma); experiment: NCI-60 single-dose anticancer screen; format: cell-based, human; settings: 10 µM single dose
# Experimental: as §1, §2
# [30] = test system: SK-OV-3 (Ovarian cancer); experiment: NCI-60 single-dose anticancer screen; format: cell-based, human; settings: 10 µM single dose
# Experimental: as §1, §2
# [31] = test system: OVCAR-4 (Ovarian cancer); experiment: NCI-60 single-dose anticancer screen; format: cell-based, human; settings: 10 µM single dose
# Experimental: as §1, §2
# [32] = test system: T-47D (Breast cancer); experiment: NCI-60 single-dose anticancer screen; format: cell-based, human; settings: 10 µM single dose
# Experimental: as §1, §2
# [33] = test system: MDA-MB-231/ATCC (Breast cancer); experiment: NCI-60 single-dose anticancer screen; format: cell-based, human; settings: 10 µM single dose
# Experimental: as §1, §2
# [34] = test system: SK-MEL-28 (Melanoma); experiment: NCI-60 single-dose anticancer screen; format: cell-based, human; settings: 10 µM single dose
# Experimental: as §1, §2
# [35] = test system: CCRF-CEM (Leukaemia); experiment: NCI-60 single-dose anticancer screen; format: cell-based, human; settings: 10 µM single dose
# Experimental: as §1, §2
# [36] = test system: 786-0 (Renal cancer); experiment: NCI-60 single-dose anticancer screen; format: cell-based, human; settings: 10 µM single dose
# Experimental: as §1, §2
# [37] = test system: DU-145 (Prostate cancer); experiment: NCI-60 single-dose anticancer screen; format: cell-based, human; settings: 10 µM single dose
# Experimental: as §1, §2
# [38] = test system: UACC-257 (Melanoma); experiment: NCI-60 single-dose anticancer screen; format: cell-based, human; settings: 10 µM single dose
# Experimental: as §1, §2
# [39] = test system: BT-549 (Breast cancer); experiment: NCI-60 single-dose anticancer screen; format: cell-based, human; settings: 10 µM single dose
# Experimental: as §1, §2
# [40] = test system: IGROV1 (Ovarian cancer); experiment: NCI-60 single-dose anticancer screen; format: cell-based, human; settings: 10 µM single dose
# Experimental: as §1, §2
# [41] = test system: HCT-15 (Colon cancer); experiment: NCI-60 single-dose anticancer screen; format: cell-based, human; settings: 10 µM single dose
# Experimental: as §1, §2
# [42] = molecular target: T1, human VEGFR-2 (Homo sapiens, UniProt P35968); experiment: In vitro VEGFR-2 inhibitory assay (colorimetric human VEGFR-2 ELISA, HTScan VEGF Receptor 2 Kinase Assay Kit); format: biochemical; settings: VEGFR-2 inhibition
# T1 construct: It includes active VEGFR-2 kinase; purchased HTScan VEGF Receptor 2 Kinase Assay Kit
# T1 sequence (P35968 20-1356): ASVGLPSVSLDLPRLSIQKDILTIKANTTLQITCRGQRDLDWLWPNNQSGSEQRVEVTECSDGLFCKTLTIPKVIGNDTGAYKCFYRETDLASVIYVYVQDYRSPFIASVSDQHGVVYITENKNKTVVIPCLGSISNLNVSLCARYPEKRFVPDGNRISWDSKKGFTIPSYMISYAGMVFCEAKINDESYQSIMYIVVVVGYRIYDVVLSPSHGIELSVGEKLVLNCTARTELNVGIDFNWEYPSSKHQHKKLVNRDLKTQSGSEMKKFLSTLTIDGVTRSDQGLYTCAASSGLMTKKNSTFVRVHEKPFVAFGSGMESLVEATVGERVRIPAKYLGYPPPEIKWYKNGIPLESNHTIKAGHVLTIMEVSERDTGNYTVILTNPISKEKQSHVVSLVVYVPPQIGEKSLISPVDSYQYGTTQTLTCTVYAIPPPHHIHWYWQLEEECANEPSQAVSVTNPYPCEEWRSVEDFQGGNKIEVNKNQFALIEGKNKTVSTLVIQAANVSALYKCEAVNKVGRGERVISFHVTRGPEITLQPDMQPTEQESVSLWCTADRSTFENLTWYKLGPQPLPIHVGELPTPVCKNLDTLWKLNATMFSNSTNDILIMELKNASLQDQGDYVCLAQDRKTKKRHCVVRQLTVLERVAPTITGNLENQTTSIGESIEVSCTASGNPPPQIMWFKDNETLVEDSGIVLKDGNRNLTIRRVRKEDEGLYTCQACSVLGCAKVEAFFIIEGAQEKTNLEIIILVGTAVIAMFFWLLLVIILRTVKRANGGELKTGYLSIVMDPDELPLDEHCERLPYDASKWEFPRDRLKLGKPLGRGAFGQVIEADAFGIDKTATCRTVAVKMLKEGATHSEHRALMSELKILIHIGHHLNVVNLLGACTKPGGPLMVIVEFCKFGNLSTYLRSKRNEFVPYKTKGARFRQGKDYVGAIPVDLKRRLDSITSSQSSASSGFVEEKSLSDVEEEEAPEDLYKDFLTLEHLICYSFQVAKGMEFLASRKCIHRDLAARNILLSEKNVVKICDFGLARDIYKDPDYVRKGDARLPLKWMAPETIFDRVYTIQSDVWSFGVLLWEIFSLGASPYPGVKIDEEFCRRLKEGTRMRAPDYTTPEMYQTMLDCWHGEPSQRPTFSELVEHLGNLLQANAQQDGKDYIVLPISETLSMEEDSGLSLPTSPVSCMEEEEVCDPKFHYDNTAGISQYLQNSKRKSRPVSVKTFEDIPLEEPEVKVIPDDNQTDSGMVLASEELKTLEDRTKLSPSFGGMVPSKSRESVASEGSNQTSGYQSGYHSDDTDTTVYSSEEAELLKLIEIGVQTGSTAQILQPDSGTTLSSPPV
# Experimental: VEGFR is considered as an important target for the development of potential anti-cancer candidates.
# On a 96-well plate, a particular VEGFR-2 antibody was seeded and 100 µL of the normal solution or compound tested was applied, incubated at room temperature for 2.5 h and washed.
# Then, 100 µL of the prepared biotin antibody was added, incubated for an additional 1 h at room temperature and washed. Following, 100 µL of streptavidin solution was added at room temperature, incubated for 45 min and then, 100 µL of TMB substrate solution was applied and incubated at room temperature for 30 min. Finally, 50 µL stop solution was added and the absorption was measured at 450 nm instantly. The standard curve, the X-axis concentrations, and the Y-axis absorbance were drawn.
# [43] = Homo sapiens, read-out: cell growth inhibition
smiles,measurement,setting,value
"COc1cc(C=CC(=O)c2ccc(N3CCNCC3)cc2)ccc1F [Ve, 3-(4-Fluoro-3-methoxyphenyl)-1-(4-(piperazin-1-yl)phenyl) prop-2-en-1-one]",cell growth promotion,[1]; 10 µM single dose,27.43%
same,inhibition at 10 µM,[1]; [43],72.6%
same,cell growth promotion,[2],100.21%
same,cell growth promotion,[3],68.11%
same,cell growth promotion,[4],51.40%
same,cell growth promotion,[5],28.91%
same,inhibition at 10 µM,[5]; [43],71.1%
same,cell growth promotion,[6],79.31%
same,cell growth promotion,[7],50.69%
same,cell growth promotion,[8],112.40%
same,cell growth promotion,[9],49.59%
same,cell growth promotion,[10],49.01%
same,cell growth promotion,[11],67.21%
same,cell growth promotion,[12],100.79%
same,cell growth promotion,[13],83.00%
same,cell growth promotion,[14],121.73%
same,cell growth promotion,[15],80.14%
same,cell growth promotion,[16],85.44%
same,cell growth promotion,[17],101.24%
same,cell growth promotion,[18],101.92%
same,cell growth promotion,[19],78.43%
same,cell growth promotion,[20],34.68%
same,inhibition at 10 µM,[20]; [43],65.3%
same,cell growth promotion,[21],59.87%
same,cell growth promotion,[22],55.00%
same,inhibition at 10 µM,[22]; [43],45%
same,cell growth promotion,[23],97.12%
same,cell growth promotion,[24],67.25%
same,cell growth promotion,[25],60.47%
same,cell growth promotion,[26],97.07%
same,cell growth promotion,[27],58.35%
same,cell growth promotion,[28],57.23%
same,cell growth promotion,[29],80.13%
same,cell growth promotion,[30],87.98%
same,cell growth promotion,[31],68.87%
same,cell growth promotion,[32],74.40%
same,cell growth promotion,[33],94.50%
same,cell growth promotion,[34],106.02%
same,cell growth promotion,[35],22.15%
same,inhibition at 10 µM,[35]; [43],77.8%
same,cell growth promotion,[36],87.22%
same,cell growth promotion,[37],105.61%
same,cell growth promotion,[38],76.08%
same,cell growth promotion,[39],66.42%
same,cell growth promotion,[40],59.94%
same,cell growth promotion,[41],43.16%
same,IC50,[42],570 nM

# From paper PMC7758046, “Novel piperazine–chalcone hybrids and related pyrazoline analogues targeting VEGFR-2 kinase; design, synthesis, molecular docking studies, and anticancer evaluation” (Journal of Enzyme Inhibition and Medicinal Chemistry, 2020)
